Counter-ions that a name gives are not always drawn. Peptide text beside a SMILES is read from it. * marks the point of attachment. Cbz = O=C(OCc1ccccc1)*; CH2F = FC*
Legend:
[1] = hPSC viability after SCD1 inhibitors with or without oleic acid; type: cell-based, human; conditions: human, human pluripotent stem cells (hPSCs), 75 nM, read-out: decrease in viability of hPSCs
Protocol: (§1) In order to determine whether hPSC viability indeed depends on functional SCD1 activity, hPSCs were exposed to 75 nM of the specific SCD1 inhibitors A939572 and CAY-10566 for 48 hours. Some samples were supplemented with 100 μM oleic acid in order to evaluate the effect of exogenous supplementation of oleic acid (a product of SCD1 activity) on cell death.

hPSCs = assay: as above; type: cell-based, human; conditions: 75 nM inhibitor, 100 μM oleic acid, 48 hours
Protocol: as §1

[2] = tested on: human embryonic stem cells; assay: Pancaspase inhibitor effect on PluriSIn #1-induced cell death; type: cell-based; conditions: 25 μM or 100 μM, 1 hour before 20 μM PluriSIn #1; 24 hours
Protocol: The effect of the pancaspase inhibitor Z-VAD-FMK on PluriSIn #1-induced cell death was also examined. Cells were treated with 25 μM or 100 μM of Z-VAD-FMK, and 1 hour later PluriSIn #1 (20 μM) was added to the medium. After 24 hours, the cultures were subjected to cell viability measurements, as described hereinabove.

[3] = tested on: human pluripotent stem cells (hPSCs); assay: Pilot cytotoxicity screen with 50 commercially available compounds; type: cell-based; conditions: within 24 hours
Protocol: (§2) The CellTiter-Glo® luminescent cell viability assay (Promega, Madison, Wis.) was implemented as a high-throughput screening (HTS) assay for a chemical library screen in a 384-well format. After the DMSO tolerance of the assay was assessed, and the optimal cell numbers were determined for each cell type, a pilot screen was performed with the following 50 commercially available compounds:
(§3) 3-acetamidophenol, 4-acetamidophenol, 6-methylcoumarin, acetaminophen, acetazolamide, actidione, amantadine hydrochloride, aminosalicylic acid, amodiaquine, amsacrine hydrochloride, aztreonam, caffeine, carboplatin, cefamandole sodium, cholic acid, ciprofloxacin, clozapine, coumarin, crotaline, diflunisal, dopamine, doxycycline, erythromycin, estradiol, famotidine, fenofibrate, fludrocortisone acetate, gentamicin, imipramine, isoniazid, isoproterenol, kanamycin, ketoconazole, L-thyroxine, mefenamic acid, nadolol, naibuphine hydrochloride hydrate, nizatidine, norepinephrine, phenobarbital, quinine hydrochloride, salicylate, sodium 2-mercapto-ethanesulfonate, sulfasalazine, sulindac, tetracycline, tetraethylthiarum disulfide, timolol maleate, valproic acid sodium, and WY-14643.
(§4) A pilot screen was then performed with 50 commercially-available compounds (as described in the Materials and Methods section hereinabove), which were randomly selected from a bank of known cytotoxic compounds. […]

[4] = tested on: human embryonic stem cells; assay: Oleic acid rescue assay; type: cell-based; conditions: 20 μM PluriSIn (2 μM amsacrine); up to 100 μM BSA-OA
Protocol: Human embryonic stem cells were cultured without feeder cells in CELLSTAR® 24-well tissue culture plates (Greiner Bio-One) pre-coated with Matrigel™, using mTeSR1 defined medium. […] After 24 hours, the cells were subjected to microscopy imaging and to cell viability measurements.
In order to further investigate the effect of SCD activity on hPSC viability, the ability of exogenous supplementation of oleic acid (the direct product of SCD1) to rescue cells from PluriSIn-induced apoptosis was further studied, using procedures described in the Materials and Methods section. Cells were exposed to PluriSn #1 in the presence of increasing concentrations of BSA-conjugated oleic acid (BSA-OA).
For comparison, cells were exposed to 20 μM of PluriSIn #1, #2, #3 and #6 in the presence of 100 μM BSA-OA.

[5] = Pilot cytotoxicity screen with 50 commercially available compounds; type: cell-based, human; conditions: human; after 24 hours, at a concentration of 1-3 μM; read-out: decrease in cell viability
Protocol: as §2, §3, §4

[6] = tested on: embryonic stem cells and differentiated cells (human fibroblasts); assay: Cytotoxicity of ER stress inducer and protein synthesis inhibitor with or without oleic acid

## Cc1nnc(-c2ccc(N3CCC(Oc4cc(F)ccc4Cl)CC3)nn2)o1 [CAY-10566, 3-[4-(2-chloro-5-fluorophenoxy)-1-piperidinyl]-6-(5-methyl-1,3,4-oxadiazol-2-yl)-pyridazine]
[1]
  cytotoxicity at 48 h, 75 nM: > 80%
hPSCs
  rescue from SCD1 inhibitor-induced cell death by oleic acid: completely rescued

## COC(=O)C[C@H](NC(=O)[C@H](C)NC(=O)[C@@H](NC(=O)OCc1ccccc1)C(C)C)C(=O)CF [Z-VAD-FMK] (Cbz-Val-Ala-Asp(OMe)-CH2F)
[2]
  suppression of PluriSIn #1-induced cell death: significant suppressed PluriSIn #1-induced cell death

## COc1cc(NS(C)(=O)=O)ccc1Nc1c2ccccc2nc2ccccc12 [amsacrine hydrochloride, reference compound]
[3]
  cell killing: killed almost all cells
[4]
  protection by BSA-conjugated oleic acid (BSA-OA) against cell death induced by the compound: did not protect

## C[C@@H]1C[C@@H]([C@H](O)CC2CC(=O)NC(=O)C2)C(=O)[C@@H](C)C1 [cycloheximide]
[5]
  cytotoxicity at 24 h: ~50%
[6]; 100 μM oleic acid
  protection by oleic acid against the compound's cytotoxicity: does not protect
[6]; 1 mM dithiothreitol or 10 μM cycloheximide, 48 hours
  cytotoxicity towards embryonic stem cells and differentiated cells: cytotoxic towards both embryonic stem cells and differentiated cells
